Experiments:
[1] = target: T1, ALK2 R206H (GST-tagged mutant ALK2) (Homo sapiens, UniProt Q04771, R206H); test: ALK binding assay (LANTHASCREEN TR-FRET competitive binding, displacement of Kinase Tracer 178); details: ALK2 R206H, LANTHASCREEN TR-FRET competitive binding; read-out: Binding Assay (IC50)
T1 construct: purchased Carna Bioscience or ThermoFisher 09-148 or PV6232
T1 sequence (Q04771 21-509 R206H): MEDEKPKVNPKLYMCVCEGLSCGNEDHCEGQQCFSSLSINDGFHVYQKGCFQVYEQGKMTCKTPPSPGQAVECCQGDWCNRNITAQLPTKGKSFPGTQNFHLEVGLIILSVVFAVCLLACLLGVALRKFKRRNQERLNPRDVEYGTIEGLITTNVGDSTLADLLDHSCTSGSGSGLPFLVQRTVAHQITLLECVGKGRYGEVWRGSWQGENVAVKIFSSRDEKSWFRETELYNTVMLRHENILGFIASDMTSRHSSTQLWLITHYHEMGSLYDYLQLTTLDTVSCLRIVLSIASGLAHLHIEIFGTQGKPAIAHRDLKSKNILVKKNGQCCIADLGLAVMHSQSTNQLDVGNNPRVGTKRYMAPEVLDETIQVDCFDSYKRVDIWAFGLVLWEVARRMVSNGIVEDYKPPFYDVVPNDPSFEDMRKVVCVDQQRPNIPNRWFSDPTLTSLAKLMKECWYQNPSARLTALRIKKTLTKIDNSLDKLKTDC

[2] = target: T2, human ALK2 R206H (Homo sapiens, UniProt Q04771, R206H); test: Cell-based ALK2-R206H cell activity assay (Smad1-Ser463/Ser465 phosphorylation by AlphaLISA in HEK293-ALK2-R206H cells); details: read-out: Cell Line (Cell Assay IC50)
T2 construct: expressed in transfected cells; host or cells: HEK293 (ATCC CRL1573), lentivirus transduction, blasticidin selection
T2 sequence (Q04771 21-509 R206H): T1 sequence (Q04771 21-509 R206H)
Procedure, shortened: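 Stable HEK293 cells expressing C-terminally FLAG-tagged human ALK2 R206H (lentiviral, blasticidin-selected) were treated with compounds in 10-point, 3-fold dilutions from 10 μM or 1 μM top, in duplicate. Smad1 Ser463/Ser465 phosphorylation was read by AlphaLISA.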

Row | IC50 [1] | IC50 [2] | SMILES
1 | < 10 nM | < 100 nM | C[C@H]1CN(c2ccc(-c3cc4c(N5CCN(C(=O)C6CC6)CC5)ccnn4c3)cc2)CCN1 [Compound 156]
2 | < 10 nM | < 100 nM | CCN1CCN(c2ccc(-c3cc4c(N5CCN(C(=O)N6CC(C#N)C6)CC5)ccnn4c3)cc2)CC1 [Compound 376]
3 | < 10 nM | 100 to 500 nM | O=C(C1CC1)N1CCN(c2ccnn3cc(-c4ccc(C5(O)CCOCC5)cc4)cc23)CC1 [Compound 172]
4 | < 10 nM | < 100 nM | C[C@@H]1CN(c2ccnn3cc(-c4ccc(N5CCNCC5)cc4)cc23)CCN1C(=O)CCC#N [Compound 199]
5 | < 10 nM | 100 to 500 nM | CC(C)N1CCC[C@@H](c2ccc(-c3cc4c(N5CCN(C(=O)NCCC#N)CC5)ccnn4c3)cc2)C1 [Compound 617]
6 | < 10 nM | < 100 nM | CCO[C@@]1(c2ccc(-c3cc4c(N5CCN(C(=O)NC(C)C)CC5)ccnn4c3)nc2)CCCNC1 [Compound 797]
7 | < 10 nM | < 100 nM | CCN1CCN(c2ccc(-c3cc4c(N5CCN(C(=O)[C@@H]6C[C@H]6F)CC5)ccnn4c3)cc2)CC1 [Compound 292]
8 | < 10 nM | < 100 nM | CC(C)N1CCC(c2ccc(-c3cc4c(N5CCN(C(=O)[C@H]6C[C@@H]6C#N)[C@H](C)C5)ccnn4c3)cc2)CC1 [Compound 407]
9 | < 10 nM | < 100 nM | CCNC(=O)N1CCN(c2ccnn3cc(-c4ccc(C5CCN(C(C)C)CC5)cc4)cc23)CC1 [Compound 275, N-ethyl-4-(6-(4-(1-isopropylpiperidin-4-yl)phenyl)pyrrolo[1,2-b]pyridazin-4-yl)piperazine-1-carboxamide]
10 | 10 to 50 nM | 100 to 500 nM | COCCN1CCN(c2ccc(-c3cc4c(N5CCN(C(=O)C6CC6)CC5)ccnn4c3)cc2)CC1 [Compound 334]
11 | 10 to 50 nM | 100 to 500 nM | O=C(C1CC1)N1CCN(c2ccnn3cc(-c4cnn(C5CNCC(F)(F)C5)c4)cc23)CC1 (centres unmarked) [Compound 194, cyclopropyl(4-(6-(1-(5,5-difluoropiperidin-3-yl)-1H-pyrazol-4-yl)pyrrolo[1,2-b]pyridazin-4-yl)piperazin-1-yl)methanone]
12 | < 10 nM | < 100 nM | CC(C)N1CC(O)(c2ccc(-c3cc4c(N5CCN(C(=O)C6CC(C#N)C6)CC5)ccnn4c3)cc2)C1 (centres unmarked) [Compound 616]
13 | < 10 nM | < 100 nM | N[C@@H](CO)c1ccc(-c2cc3c(N4CCN(C(=O)C5CC5)CC4)ccnn3c2)cc1 [Compound 753]
14 | < 10 nM | < 100 nM | CCNC(=O)N1CCN(c2ccnn3cc(-c4ccc([C@@]5(F)CCCNC5)cc4)cc23)CC1 [Compound 189]
15 | < 10 nM | < 100 nM | CCNC(=O)N1CCN(c2ccnn3cc(-c4ccc([C@]5(O)CCCN(C(C)C)C5)cn4)cc23)CC1 [Compound 605]
16 | < 10 nM | 100 to 500 nM | CC(C)N1CCN[C@](C)(c2ccc(-c3cc4c(N5CCN(C(=O)C6CC6)CC5)ccnn4c3)nc2)C1 [Compound 575]
17 | < 10 nM | < 100 nM | CCOC(=O)N1CCN(c2ccnn3cc(-c4ccc([C@]5(C)CN(C(C)C)CCN5C)cc4)cc23)CC1 [Compound 641]
18 | < 10 nM | 100 to 500 nM | CC(C)N1CCC(c2ccc(-c3cc4c(N5CCN(C(=O)NCCC#N)CC5)ccnn4c3)cc2)CC1 [Compound 377]
19 | < 10 nM | < 100 nM | O=C(C1CC1)N1CCN(c2ccnn3cc(-c4ccc(OC5CCCNC5)cc4)cc23)CC1 (centres unmarked) [Compound 159]
20 | < 10 nM | < 100 nM | O=C(OC1COC1)N1CCN(c2ccnn3cc(-c4ccc(N5CCNCC5)cn4)cc23)CC1 [Compound 776]

Row | SMILES | IC50 [1] | IC50 [2]
21 | CCOC(=O)N1CCN(c2ccnn3cc(-c4ccc(C5(OCC)CCN(C(C)C)CC5)cn4)cc23)CC1 [Compound 835] | < 10 nM | < 100 nM
22 | CCOC1(c2ccc(-c3cc4c(N5CCN(C(=O)NC(C)C)CC5)ccnn4c3)cc2)CCN(C(C)C)CC1 [Compound 712] | < 10 nM | < 100 nM

Source: US10233186B2, “Inhibitors of activin receptor-like kinase” (BLUEPRINT MEDICINES CORPORATION, priority 2016, dated 2019)
